Reference: patent US12139488B2, “Pyrido[3,2-d]pyrimidine compounds uses thereof for treating a proliferative disease” (Universite de Montreal, priority 2021, dated 2024)

Tests used:
ARAF = ARAF (Homo sapiens (Human), UniProt P10398); assay: ARAF kinase activity assay (AlphaLISA p-MEK 1/2 detection); format: biochemical
Procedure: Compound preparation: solid samples of each substances in 1 dram vials were suspended in DMSO (Fisher Scientific) at a stock concentration of 20 mM. Stocks were kept at −20° C. and protected from light. If solubility of the compound at 20 mM appeared to be an issue, the initial concentration of the DMSO stock was changed to 10 mM or 5 mM.
In vitro enzymatic reactions were used for evaluating compounds intrinsic activity against BRAF, CRAF and ARAF. For BRAF and CRAF, 0.375 nM of purified GST-tagged kinases (cat #B4062-10 UG and cat #R1656-10 UG respectively from Millipore Sigma) were incubated with 75 nM of kinase-dead MEK1 substrate (cat #40075; BPS Bioscience) in the presence of 10 μM of Ultrapure ATP (cat #V9102; Promega; part V915A) with and without the test compound in a buffer containing 50 mM HEPES pH 7.5, 10 mM MgCl2, 1 mM EDTA, 0.01% Brij-35 and 2 mM DTT. Separate reactions were performed with the MEK1 substrate and ATP as a blank control. ARAF, kinase reactions were rigorously the same with the exception that kinase concentration was raised to 3.75 nM (cat #1768-0000-1; Reaction Biology).
For compound treatment, 5 μL/well of test substance solution are placed in a 384-well proxyplate (Perkin Elmer) and mixed with 2× concentrated kinase reactions. The dilution series is selected so that nine concentrations cover a range from 100 nM to 0.01 nM. […] The final concentration of DMSO in the assay is set at 0.05%.
ARAF kinase reactions were carried out for a total of 2 hours at 30° C. and then stopped by addition of EDTA at a final concentration of 40 mM. Reactions were then detected using the AlphaLISA® SureFire® Ultra™ p-MEK 1/2 (Ser218/222) (PerkinElmer) kit. Reactions were performed with 5 μL of kinase reaction according to the manufacturer's specifications in 384-well proxyplates (Perkin Elmer) followed by overnight incubation of the AlphaLISA® reactions at room temperature in a humidified chamber. After completion of the detection reactions, the signals were recorded on a Synergy Neo2 plate reader (Biotek) equipped with AlphaLISA® filters. The effect of each compound dilution on the pMEK signal generated by ARAF reactions was expressed in % inhibition and calculated as follows. An internal 100% inhibition control (average of luminescence in kinase reactions comprising kinase dead MEK1 substrate alone) was included in each plate to measure of pMEK background and was subtracted from each data point. The average of DMSO (vehicle) controls (set as 0% inhibition) was also established and used to calculate % inhibition: % inhibition=100*(1−((pMEK signalcompound)/(pMEK signalDMSO)))
IC50 values were obtained by plotting the kinase inhibition values and fitting the dose-activity curves using a log(agonist) versus response-variable slope (four parameters) function using either GraphPadPrism (V7.0) or Dotmatics Screening Ultra platform. Standards included in the ARAF kinase assay were Belvarafenib (MedChem Express cat #HY-109080; CAS #1446113-23-0), LXH254 (MedChem Express cat #HY-112089; CAS #1800398-38-2) and BGB283 (cat #HY-18957; CAS #1446090-79-4).

[1] = system: pERK in HCT-116 cells (KRAS G13D); assay: Phospho-ERK inhibition (AlphaLISA SureFire Ultra p-ERK 1/2), HCT116; format: cell-based, human
Outline: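 p-ERK1/2 (Thr202/Tyr204) in lysates measured by AlphaLISA after 1 h compound exposure of overnight-plated cells (RPMI-1640, 5% FBS, 0.5% DMSO, ten concentrations, usually from 10 μM). Background from a trametinib control subtracted, inhibition normalised to vehicle, and IC50 fitted with a variable-slope four-parameter model.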

[2] = system: pERK and pMEK in RAS-mutant HCT-116 cells; assay: Immunoblot analysis of pERK and pMEK in HCT-116 cells; format: cell-based, human; conditions: 1 h treatment, FIG. 2
Procedure: For immunoblotting analysis, 500,000 HCT-116 cells were plated in 1 mL of complete RPMI-1640 growth medium in 24-well flat-bottomed transparent dishes (Costar). Cells were maintained overnight at 37° C. under 5% CO2 before treatment with compounds' dilution series for one hour.
Cells were then washed once in PBS and lized in 250 μL of Igepal Lysis Buffer (50 mM Tris-HCl pH 7.5, 150 mM NaCl, 1% Igepal-CA630, 1 mM EDTA, 10% Glycerol) supplemented with Leupeptin, Aprotinin, PMSF, phosphatase inhibitor cocktail (Sigma) and Na3VO4 at 4° C. for 15 minutes with gentle rocking. Cell extracts were then cleared by centrifugation at 20,000 g at 4° C. for 10 minutes. Cleared lysates were then transferred on ice in fresh tubes and then boiled in sample loading buffer (100 mM Tris-HCl pH 6.8, 4% SDS, 0.2% bromophenol blue, 20% glycerol, 200 mM p-mercaptoethanol) for 5 minutes prior to fractionation by SDS-PAGE and transfer to nitrocellulose membranes (PALL). […]

Chain of ARAF (P10398 whole entry): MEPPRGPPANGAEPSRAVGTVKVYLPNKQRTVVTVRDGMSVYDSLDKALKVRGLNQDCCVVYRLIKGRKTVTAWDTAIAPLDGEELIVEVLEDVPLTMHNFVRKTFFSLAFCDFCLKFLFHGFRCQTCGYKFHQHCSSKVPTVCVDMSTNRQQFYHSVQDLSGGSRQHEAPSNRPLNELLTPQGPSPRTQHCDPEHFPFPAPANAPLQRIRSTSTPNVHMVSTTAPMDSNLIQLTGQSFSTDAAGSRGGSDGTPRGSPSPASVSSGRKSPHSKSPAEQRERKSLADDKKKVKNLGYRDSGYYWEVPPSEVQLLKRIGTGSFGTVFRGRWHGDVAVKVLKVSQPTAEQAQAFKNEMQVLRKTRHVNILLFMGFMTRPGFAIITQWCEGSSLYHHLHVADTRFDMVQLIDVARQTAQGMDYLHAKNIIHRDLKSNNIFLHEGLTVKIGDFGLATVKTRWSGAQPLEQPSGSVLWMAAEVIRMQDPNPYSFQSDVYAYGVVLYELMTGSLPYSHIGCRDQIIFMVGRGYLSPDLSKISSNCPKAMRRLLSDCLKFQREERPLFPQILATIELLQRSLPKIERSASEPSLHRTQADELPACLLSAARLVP

| SMILES | IC50 (ARAF) [nM] | YMIN of pERK IC50 dose response curve (paradoxical induction of pERK signaling) ([1]; RAS-mutant HCT116 cells, FIG. 1) [%] | paradoxical induction of pERK or pMEK signaling (immunoblot) [2] | IC50 ([1]; HCT116 cells, class symbol) [nM] |
| --- | --- | --- | --- | --- |
| O=C1CCc2c(Oc3ccc4c(c3)[C@@H]3[C@H](O4)[C@H]3c3nc4ccc(C(F)(F)F)cc4[nH]3)ccnc2N1 [BGB283, reference compound] | > 10 |  |  |  |
| CCCS(=O)(=O)Nc1ccc(F)c(C(=O)c2c[nH]c3ncc(Cl)cc23)c1F [PLX4720, reference compound] |  | ~−600 | induces the pathway |  |
| Cc1nc(N)ccc1S(=O)(=O)Nc1ccc(F)c(Nc2ncnc3ccc(-n4cnc5c(N)cccc54)nc23)c1F [Example 353] | 1 to 10 |  |  | 1000 to 10000 |
